In US7259167B2, “Antimalarial and antiproliferative pharmacophore models, novel tryptanthrin compounds having increased solubility, and methods of making and using thereof” (United States of America as Represented by the Secretary of …, priority 2002, dated 2007):
Converted amounts (≈) assume the structure as drawn.

What was measured:
[1] = Hemin binding activity assay by 1H NMR (pseudocontact shifts); conditions: for Maximum induced Δδ: hemin induced pseudocontact chemical shift; for Maximum induced Δδ / Concentration dependence Δδ: DMSO-d6; for Concentration dependence Δδ: slope of Δδ v. hemin concentration
Method: (§1) As provided in Example 5, the hemin binding affinity for a series of tryptanthrin compounds with functional groups at the 8-position with different electron donating/withdrawing characteristics corresponding with the pharmacophore model of the present invention was determined by ^1H NMR. The binding interaction was measured as a function of the induced up-field shift in the chemical shift as a function of increasing hemin concentration. ^1H spectra of selected compounds each analog with an increasing concentration of hemin were collected and analyzed for the effect of the pseudocontact shifts.
It is well known that bio-molecules containing the paramagnetic species Fe^+3 induce via pseudocontact effect (a thru-space paramagnetic interaction, similar to the thru-space diopolar interaction or NOE) up-field chemical shifts of the ^1H, ^13C, ^15N atoms of bound ligands. See Serge Moreau et al. (1985) Biochemica et. Biophysica Acta 107-116; Alam, S. L., et al. (1998) J. Biomol. NMR 11:119-133; and Kalodimos, C. G., et al. (2000) J. Inorg. Biochem. 79:371-380, which are herein incorporated by reference. […] See Crowley, P. B., et al. (2001) J. Am. Chem. Soc. 123:10444-10453, which is herein incorporated by reference. Consequently, the closer a particular proton on the ligand is to the Fe^+3 atom, the greater the induced Δδ.
as §1, with “The” for “As provided in Example 5, the”, “using” for “by”, “of” for “of selected compounds”
To each sample, a 100 or 200 μl aliquot of a known concentration of hemin dissolved in 1.0 ml of DMSO-d6 was added. The concentrations of the tryptanthrin compounds compounds ranged from 3.0 to 8.0 mg per 500 μl of DMSO. A corresponding solution of hemin in DMSO was prepared to maintain a molar ratio of tryptanthrin compounds to hemin in the range of 1:1.0 to 1:1.5.
All ^1H NMR data was collected using a Bruker Avance-600 spectrometer using methods known in the art. See e.g. Wang, J., et al. (2001) J. Am. Chem. Soc. 123:8080-8088, which is herein incorporated by reference. The proton spectra were collected at 300 K, using a spectral width of 9090.9 Hz. All spectra were acquired with 64k data points in F2. All chemical shifts were referenced internally to TMS (0.00 ppm). The spectra were processed using XWINNMR (Bruker BioSpin Corporation, Billerica, Mass.) on a Silicon Graphics O2 workstation (Silicon Graphics, Mountain View, Calif.). Each data set was multiplied by a Gaussain window function with 0.3 Hz line broadening in each dimension before transformation.

[2] = Cyclic voltammetry, redox potentials; format: physicochemical; design: unit not given here; conditions: 1 mM in acetonitrile, 0.1 M tetrabutylammonium hexafluorophosphate, Ag-AgCl reference
Method: The redox potentials associated with electron transfer to the oxygen atoms in compounds was measured. Experiments were performed on a CV-50W Voltammetric analyzer with a C2 cell stand (Bioanalytical systems, West Lafayette Ind.).
Cyclic voltammetry experiments were performed on a CV-50W Voltammetric analyzer with a C2 cell stand (Bioanalytical systems, West Lafayette Ind.). A glassy carbon working, an Ag—AgCl reference electrode and a Pt auxiliary electrode were used in a 5 ml glass cell. All samples were dissolved in dry acetonitrile (Aldrich, St. Louis, Mo.) with 0.1 M tetrabutylammonium hexafluorophosphate (Aldrich, St. Louis, Mo.) as the supporting electrolyte. Each analog was prepared at a concentration of 1 mM and was degassed with nitrogen for 5 minutes prior to analysis. Samples were run at several scan rates ranging from 20 to 1000 mV/s. See Smyth, M. R., and Vos, J. G. Analytical Voltammetry; Elsevier: New York, 1992; Chapter 1, which is herein incorporated by reference.

[3] = system: P. falciparum W2 (Indochina) clone; assay: Antimalarial activity assay in vitro ([3H]hypoxanthine incorporation), W2 clone; format: cell-based; conditions: Plasmodium falciparum, Table 7, read-out: W-2
Source text: Although two P. falciparum malaria parasite clones, designated as Sierra Leone (D6) and Indochina (W2) were used in the susceptibility testing as disclosed in Example 1, the IC50 values obtained from the W2 clones were used as the activity parameter to develop the pharmacophore model as the D6 clone results closely paralleled the W2 clones. See U.S. Pat. No. 6,284,772, which is herein incorporated by reference.
(§2) The tryptanthrin compounds were examined for IC50 values against either the P. falciparum W2 (Indochina) or D6 (Sierra Leone) clones in vitro. See U.S. Pat. No. 6,284,772, which is herein incorporated by reference. The in vitro assays were conducted by using the semiautomated microdilution technique of Desjardins, et al. (1979) Antimicrob. Agents Chemther. 16:710-718 and the [^3H]hypoxanthine incorporation techniques of Chulay et al. (1983) Exp. Parasitol. 55:138-146, both of which are herein incorporated by reference. […] The clones were derived by direct visualization and micromanipulation from the patient isolates.
(§3) Test tryptanthrin compounds were initially dissolved in DMSO and diluted 400-fold in RPMI 1640 culture medium supplemented with 25 mM Hepes, 32 mM NaHCO3 and 10% Albumax I (GIBCO BRL, Grand Island, N.Y.). These solutions were subsequently serially diluted 2-fold with a Biomek 1000 (Beckman, Fullerton, Calif.) over 11 different concentrations. The parasites were exposed to serial dilutions of each compound for 48 hours and incubated at 37° C. with 5% O2, 5% CO2, and 90% N2 prior to the addition of [^3H]hypoxanthine. After a further incubation of 18 hours, parasite DNA was harvested from each microtiter well using a Packard Filtermate 196 Harvester (Meriden, Conn.) onto glass filters. Uptake of [^3H]hypoxanthine was measured with a Packard topcount scintillation counter.

[4] = system: P. falciparum D6 (Sierra Leone) clone; assay: Antimalarial activity assay in vitro ([3H]hypoxanthine incorporation), D6 clone; format: cell-based; conditions: Plasmodium falciparum, Table 7, read-out: D-6
Method: as §2, §3

[5] = system: malaria parasites; assay: In vivo testing (modified Thompson test), mouse malaria; design: species or system mice
Source text: The in vivo efficacy of the compounds of the present invention alone or in combination with an adjuvant can be determined in a modified Thompson test. This test measures the survivability of mice and parasitemia clearance following administration of the compound or composition of the invention on days 3-5 post infection. In brief, 5×10^5 malaria parasites of one or more of the four described strains are inoculated intraperitoneally to female mice that weight approximately 24-30 g. Each compound was dissolved in 5% sodium bicarbonate, and was administered p.o. twice daily from day 3 to day 5 postinfection. Total dosage of the compounds of the invention is 0.001 to 1000 mg/kg. The percent suppression of parasitemia in the treated mice compared to untreated controls is determined for each test compound. Survival of mice to day 60 post infection is considered a cure. Compounds are considered active when the survival time of the treated mice is greater than twice the control mice.
The test of the six compounds identified above were conducted by subcutaneous dosing in peanut oil. Formulated in peanut oil and injected s.c. (N=8) at various doses up to 190 mg/kg. […] Although parasites were not cleared, the survival of infected mice doubled that of the control. Life expectancy was 12-14 days compared to 6-7 days in the control (parasitized, untreated).

For `O=C1c2cc(OC(F)(F)F)ccc2-n2c1nc1ncccc1c2=O` [DN9], the “Maximum induced Δδ” value [1] was 0.462 ppm and the “Concentration dependence Δδ” value [1] was 0.08951 ppm/mole %.
With `COc1ccc2c(c1)C(=O)c1nc3ncccc3c(=O)n1-2` [DN23] the “Maximum induced Δδ” value [1] was 0.208 ppm and the “Concentration dependence Δδ” value [1] was 0.119 ppm/mole %.
For `O=C1c2cc([N+](=O)[O-])ccc2-n2c1nc1ncccc1c2=O` [DN40], the “maximum pseudocontact shift relative to DN48” value ([1]; compared with DN48) was “approximately 3 times”, the “Maximum induced Δδ” value [1] was 1.538 ppm and the “Concentration dependence Δδ” value [1] was 0.4159 ppm/mole %.
For `O=C1c2ccc(Cl)cc2-n2c1nc1ncccc1c2=O` [DN48], the “Maximum induced Δδ” value [1] was 0.389 ppm and the “Concentration dependence Δδ” value [1] was 0.119 ppm/mole %.
In the case of `O=C1c2cc(F)ccc2-n2c1nc1ncccc1c2=O` [DN63], the “Maximum induced Δδ” value [1] is reported as 0.360 ppm and the “Concentration dependence Δδ” value [1] is reported as 0.1366 ppm/mole %.
For `CN(CCO)c1ccc2c(=O)n3c(nc2c1)C(=O)c1cc(F)ccc1-3` [WR281523], the Redox1 [2] was −630, the “Redox 2” value [2] was −1281 and the IC50 [3] was 2.46 ng/mL (≈ 0.00723 µM). For the same compound, the IC50 [4] was 4.12 ng/mL (≈ 0.0121 µM).
With `O=C1c2cc(OC(F)(F)F)ccc2-n2c1nc1cc(SCCO)ccc1c2=O` [WR281525] the Redox1 [2] was −600, the “Redox 2” value [2] was −1252 and the IC50 [3] was 1.25 ng/mL (≈ 0.00307 µM). For the same compound, the IC50 [4] was 2.31 ng/mL (≈ 0.00566 µM).
With `O=C1c2cc(Cl)ccc2-n2c1nc1cc(F)ccc1c2=O` [WR281583] the Redox1 [2] was −586, the “Redox 2” value [2] was −1242 and the IC50 [3] was 4.74 ng/mL (≈ 0.0158 µM). The IC50 [4] was 6.77 ng/mL (≈ 0.0225 µM).
In the case of `CN1CCN(c2ccc3c(=O)n4c(nc3c2)C(=O)c2cc(Cl)ccc2-4)CC1` [WR281588], the Redox1 [2] is reported as −692, the “Redox 2” value [2] is reported as −1324 and the IC50 [3] is reported as 4.27 ng/mL (≈ 0.0112 µM). It also gave an IC50 [4] of 10.5 ng/mL (≈ 0.0275 µM).
With `CCCCCCCC(=O)OCCN(C)c1ccc2c(=O)n3c(nc2c1)C(=O)c1cc(Cl)ccc1-3` [WR281591] the Redox1 [2] was −709, the “Redox 2” value [2] was −1375 and the IC50 [3] was 36.8 ng/mL (≈ 0.0764 µM). It also gave an IC50 [4] of 70.1 ng/mL (≈ 0.146 µM).
With `O=C1c2cc(F)ccc2-n2c1nc1c(F)cccc1c2=O` [WR281631] the Redox1 [2] was −593, the “Redox 2” value [2] was −1219 and the IC50 [3] was 1.58 ng/mL (≈ 0.00557 µM). It also gave an IC50 [4] of 2.57 ng/mL (≈ 0.00904 µM).
In the case of `COc1cccc2c(=O)n3c(nc12)C(=O)c1cc(I)ccc1-3` [WR281635], the Redox1 [2] is reported as −640, the “Redox 2” value [2] is reported as −1230 and the IC50 [3] is reported as 35.6 ng/mL (≈ 0.0882 µM). It also gave an IC50 [4] of 95.3 ng/mL (≈ 0.236 µM).
In the case of `O=C1c2cc(Cl)ccc2-n2c1nc1cc(N3CCCCC3)ccc1c2=O` [WR281647], the Redox1 [2] is reported as −696, the “Redox 2” value [2] is reported as −1348 and the IC50 [3] is reported as 58.1 ng/mL (≈ 0.159 µM). It also gave an IC50 [4] of 97.1 ng/mL (≈ 0.265 µM).
With `O=C1c2cc(F)ccc2-n2c1nc1ccccc1c2=O` [WR^282611] the “survival of infected mice relative to control” value ([5]; 190 mg/kg s.c. in peanut oil) was “doubled”, the Life expectancy ([5]; 190 mg/kg s.c. in peanut oil, control 6-7 days) was 12 to 14 days and the activity ([5]; max. dosage 190 mg/kg s.c. in peanut oil) was “exhibited activity”.
